Measured values as given in ChEMBL document CHEMBL1150750, “Modified taxols, 4. Synthesis and biological activity of taxols modified in the side chain” (J Nat Prod, 1988).
≈ marks a conversion by molar mass, not a printed value.

Legend:
P388 [1] = test: In vivo cytotoxicity against mouse P388 cells at 22 mg/kg; format: functional
P388 [2] = test: In vivo cytotoxicity against mouse P388 cells at 44 mg/kg; format: functional
P388 [3] = test: In vivo cytotoxicity against mouse P388 cells at 11 mg/kg; format: functional
KB = test: Cytotoxicity against human KB cells; format: functional; conditions: for EC50: Homo sapiens, KB, read-out: ED50 (the source's name)
P388 [4] = test: In vivo cytotoxicity against mouse P388 cells at 20 mg/kg; format: functional
P388 [5] = test: In vivo cytotoxicity against mouse P388 cells at 2.5 mg/kg; format: functional
P388 [6] = test: In vivo cytotoxicity against mouse P388 cells at 5 mg/kg; format: functional
P388 [7] = test: In vivo cytotoxicity against mouse P388 cells at 10 mg/kg; format: functional
P388 [8] = test: In vivo cytotoxicity against mouse P388 cells at 40 mg/kg; format: functional
[9] = Chemical stability assessed as decomposition to taxol at pH 6.6 after 20 hrs; format: physicochemical; conditions: buffer, pH 6.6, 20 h
[10] = Solubility in water by HPLC method; format: physicochemical
[11] = Stability in water assessed as decomposition to taxol after 24 hrs; format: physicochemical; conditions: buffer
P388 [12] = test: In vivo cytotoxicity against mouse P388 cells at 6.5 mg/kg; format: functional
P388 [13] = test: In vivo cytotoxicity against mouse P388 cells at 26 mg/kg; format: functional
P388 [14] = test: In vivo cytotoxicity against mouse P388 cells at 3.25 mg/kg; format: functional
P388 [15] = test: In vivo cytotoxicity against mouse P388 cells at 13 mg/kg; format: functional

SMILES	EC50 (KB) [µg/mL]	T/C (P388 [4]) [%]	ED50 (KB)	T/C (P388 [7]) [%]	also measured
CC(=O)O[C@H]1C(=O)[C@@]2(C)[C@H]([C@H](OC(=O)c3ccccc3)[C@]3(O)C[C@H](OC(=O)[C@H](OC(=O)CCC(=O)O)[C@@H](NC(=O)c4ccccc4)c4ccccc4)C(C)=C1C3(C)C)[C@]1(OC(C)=O)CO[C@@H]1C[C@@H]2O	0.01 (≈ 0.0105 µM)				T/C (P388 [1]): 122%; T/C (P388 [2]): 129%; T/C (P388 [3]): 112%
CC(=O)O[C@H]1C(=O)[C@@]2(C)[C@H]([C@H](OC(=O)c3ccccc3)[C@]3(O)C[C@H](OC(=O)[C@H](OC(C)=O)[C@@H](NC(=O)c4ccccc4)c4ccccc4)C(C)=C1C3(C)C)[C@]1(OC(C)=O)CO[C@@H]1C[C@@H]2O		140	2 ×10⁻⁵ ug/ml	130	T/C (P388 [5]): 127%; T/C (P388 [6]): 127%
CC(=O)O[C@H]1C(=O)[C@]2(C)[C@@H](OC(C)=O)C[C@H]3OC[C@@]3(OC(C)=O)[C@H]2[C@H](OC(=O)c2ccccc2)[C@]2(O)C[C@H](OC(=O)[C@H](OC(C)=O)[C@@H](NC(=O)c3ccccc3)c3ccccc3)C(C)=C1C2(C)C	0.2 (≈ 0.213 µM)	100		105	T/C (P388 [8]): 104%
CC(=O)O[C@H]1C(=O)[C@@]2(C)[C@H]([C@H](OC(=O)c3ccccc3)[C@]3(O)C[C@H](OC(=O)[C@H](OC(=O)CCN)[C@@H](NC(=O)c4ccccc4)c4ccccc4)C(C)=C1C3(C)C)[C@]1(OC(C)=O)CO[C@@H]1C[C@@H]2O.O=CO		130	2 ×10⁻⁴ ug/ml	117	Stability [9]: Unstable; solubility [10]: 2200 µg/mL; T/C (P388 [8]): 140%; Stability [11]: 90%
CC(=O)O[C@H]1C(=O)[C@@]2(C)[C@H]([C@H](OC(=O)c3ccccc3)[C@]3(O)C[C@H](OC(=O)[C@H](O[Si](C)(C)C(C)(C)C)[C@H](NC(=O)c4ccccc4)c4ccccc4)C(C)=C1C3(C)C)[C@]1(OC(C)=O)CO[C@@H]1C[C@@H]2O	0.3 (≈ 0.31 µM)				
CC(=O)O[C@H]1C(=O)[C@@]2(C)[C@H]([C@H](OC(=O)c3ccccc3)[C@]3(O)C[C@H](OC(=O)[C@H](OC(=O)CCNC(=O)OCc4ccccc4)[C@@H](NC(=O)c4ccccc4)c4ccccc4)C(C)=C1C3(C)C)[C@]1(OC(C)=O)CO[C@@H]1C[C@@H]2O			1 ×10⁻⁴ ug/ml		
CC(=O)O[C@H]1C(=O)[C@@]2(C)[C@H]([C@H](OC(=O)c3ccccc3)[C@]3(O)C[C@H](OC(=O)[C@@H]4OC(=O)N(C(=O)c5ccccc5)[C@H]4c4ccccc4)C(C)=C1C3(C)C)[C@]1(OC(C)=O)CO[C@@H]1C[C@@H]2O	0.2 (≈ 0.227 µM)				
CC(=O)O[C@H]1C(=O)[C@]2(C)[C@@H](OC(C)=O)C[C@H]3OC[C@@]3(OC(C)=O)[C@H]2[C@H](OC(=O)c2ccccc2)[C@]2(O)C[C@H](OC(=O)[C@H](O)[C@@H](NC(=O)c3ccccc3)c3ccccc3)C(C)=C1C2(C)C [PACLITAXEL C7 ACETYLCARBOXYLIC ACID ESTER]	0.004 (≈ 0.00446 µM)				T/C (P388 [12]): 124%; T/C (P388 [13]): 130%; T/C (P388 [14]): 128%; T/C (P388 [15]): 127%
CC(=O)O[C@H]1C(=O)[C@@]2(C)[C@H]([C@H](OC(=O)c3ccccc3)[C@]3(O)C[C@H](OC(=O)[C@H](O)[C@@H](NC(=O)c4ccccc4)c4ccccc4)C(C)=C1C3(C)C)[C@]1(OC(C)=O)CO[C@@H]1C[C@@H]2O [PACLITAXEL]		104	1 ×10⁻⁵ ug/ml	137	T/C (P388 [5]): 147%; T/C (P388 [6]): 156%
